Here are results for two compounds from paper PMC10855164, “Ligand-Based Design of Selective Peptidomimetic uPA and TMPRSS2 Inhibitors with Arg Bioisosteres” (International Journal of Molecular Sciences, 2024).

Data set [1] concerns the target T1, uPA (Homo sapiens, UniProt P00749).
T1 construct: purchased Sigma Aldrich
The experiment in a line: fluorometric enzyme inhibition assay, uPA (Z-Gly-Gly-Arg-AMC). The data set is classed as biochemical. The note with it: for Ki: from IC50 by Cheng-Prusoff, n.a. = not active, <80% inhibition at 20 µM. How it is done: The inhibitory activity of the synthesized compounds towards the respective main- and off-target proteases was measured via fluorometric and colorimetric assays. Thus, fluorogenic AMC- or colorimetric pNA-based substrates with a peptide sequence suitable for the tested protease were utilized (see Supplementary Figure S2). At first, the compounds were screened against […] proteases (uPA, TMPRSS2, matriptase, tPA, thrombin, factor Xa) at 20 µM, and a cut-off value of 80% inhibition at this concentration was set, for the differentiation between nonactive (n.a.) and active inhibitors. Due to the reversible inhibition mechanism of the ketobenzothiazole derivates, the IC50 values were determined with Graphpad Prism 9, and afterwards converted to the corresponding Ki values for an adequate comparison between the inhibitory activities of the compounds toward all tested proteases. The Ki values were calculated using the Cheng–Prusoff equation [43].
Fluorometric inhibition assays
The inhibitory activities of the compounds against the proteases were determined by enzyme inhibition assays with fluorogenic or colorimetry-based substrates. The fluorescence, caused by cleaved AMC from the fluorogenic substrates (uPA, matriptase, TMPRSS2, thrombin), was measured in white flat-bottom 96-well plates from Greiner Bio-One using a Tecan Infinite F200 Pro plate reader. The absorption, caused by cleaved pNA from colorimetric substrates (factor Xa and tPA), was measured in transparent flat-bottom 96-well plates from Greiner Bio-One using a Tecan Spark 10M plate reader. All measurements with the main-target proteases (uPA and TMRPSS2) were performed as triplicates and with the off-target proteases (matriptase, factor Xa, tPA, thrombin) as duplicates. The substrates and the compounds were prepared as stock solutions in DMSO. Each well contained a total volume of 200 µL, consisting of 185 µL buffer, 5 µL inhibitor in DMSO or pure DMSO as negative control, 5 µL substrate in DMSO and 5 µL enzyme solution in buffer. Dilution series were prepared for the determination of the inhibition constants. The fluorescence signal and absorbance were measured every 30 s for 10 min at 25 or 37 °C with the corresponding excitation/emission (λex = 380 nm / λem = 460 nm) and absorbance (λabs = 405 nm) wavelengths, depending on the targeted protease. IC50 values for the reversible inhibitors were calculated with Graphpad Prism 9 by fitting the remaining enzymatic activity to the four parameter IC50 equation with Y [%] as the residual enzyme activity , Ymax as the maximum value of the dose response curve at inhibitor concentrations [I] = 0 µM, Ymin as the minimum value at high inhibitor concentrations and s as the hill coefficient.[1] The fluorescence progress curves and sigmoidal dose-response curve for inhibition of uPa by compound 38 is shown exemplary in Figure S2.
Figure S2: (left) Fluorescence progress curves for inhibition of uPa by cpd. 38. (right) Plot showing the respective IC50 value […]
Due to the dependence of the IC50 value on the substrate affinity and concentration, the Ki values were calculated with the Cheng-Prusoff equation, using the final substrate concentration [S] and the Michaelis-Menten constant KM, (2) for appropriate comparison of the inhibitory activities to the other enzymes and inhibitors.[1]
KM values were determined by fitting to the Michaelis-Menten equation using Graphpad Prism 9 with v [ΔF/min] as the substrate hydrolysis rate, vmax as the maximum slope of the dose-response curve, and the substrate [S] concentration.[1] The different substrates were serially diluted in DMSO. The measurement was done in analogy to the determination of the inhibitory activity, but with 5 µL pure DMSO instead of inhibitor solution. The fluorescence progress curves and Michaelis-Menten curve of the specific substrate of uPA is shown exemplarily […]
Figure S3: (left) Fluorescence progress curves of cleavage of Z-Gly-Gly-Arg-AMC by uPA. (right) Michaelis-Menten curve […]

Data set [2] is described as follows: Parallel Artificial Membrane Permeation Assay (PAMPA). It counts as in vitro ADME. The note with it: TRIS 50 mM pH 7.4, 5% DMSO, 7 h at room temperature. An excerpt: Following the envisioned applications of the presented inhibitors as drug leads for the treatment of cancer or viral infections, cell permeability is an important factor in the characterization process. […] However, in the organismic contexts of oral bioavailability (facilitated application) and biodistribution (reaching target tissue), adequate permeation is an important quality. To assess this characteristic, PAMPA was used as a suitable model for passive permeation.
Figure S5: Stability analyses of a representative set of inhibitors. The depictions consist of compound structure and number, then analysis at t0, then analysis after 7 h at room temperature, then analysis after 12 h at 37 °C. […]
Incubation setup was assembled and left for 7 h at room temperature. Reference solutions were prepared by simply mixing the indicated volumes of donor and acceptor solutions at the start of the incubation period and analyzed later with the acceptor solutions. […]
Measurement setup for spectroscopy consisted of UV-transparent measurement plate (Greiner UV-Star®, 655801), Tecan Spark 10M® well plate reader, 200 µL sample volume, λ = 200–650 nm. […]
Measurement setup for LC/MS consisted of Agilent 1100 series HPLC system coupled to an Agilent 1100 series LC/MSD Trap with electron spray ionization (ESI). […] Retention time and mass spectrum recorded in positive ionization mode were used to assign species. […]
Background: PAMPA measures passive passage across an artificial lipid membrane.

The Ki is a dissociation constant, usually derived from enzyme kinetics or from competition with a known ligand. High values mean lower affinity, low ones higher affinity. With `CC(=O)N[C@@H](Cc1ccccc1)C(=O)N[C@@H](Cc1ccc(NC(=N)N)cc1)C(=O)c1nc2ccccc2s1` [Compound 33], the affinity in data set [1], expressed as Ki, was 5260 ± 922 nM. Further, the “Selectivity index [SI] uPA” value in data set [1] (quotient Ki uPA / Ki TMPRSS2) was 1052. Moreover, in data set [2], the “PAMPA permeability Pe” value is “not enough to exert measurable permeability”.

`CC(=O)NCC(=O)NC(C(=O)NC(C)C(=O)NC(CC1CCC(NC(=N)N)CC1)C(=O)c1nc2ccccc2s1)C(C)O` (centres unmarked) [Compound 38]: the inhibition constant (Ki) in data set [1] came to 39 ± 5 nM. The Papp at 7 h in data set [2] (PAMPA, read-out: PAMPA permeability Pe) is less than 1 ×10⁻⁶ cm/s.
